Data reported in patent US8735140B2, “Preservation and composition of bioprocess algae for production of lipids, seedstock, and feed” (Kuehnle AgroSystems, Inc., priority 2008, dated 2014).

Legend:
Tetraselmis (KAS633) = experiment: Trehalose preservation, storage by air drying on paper disk; type: cell-based; conditions: for % Viability: 0M control = 100%; for Growth: final/initial density
Description: (§1) Flask cultures (40 ml) of cells are grown to mid-log phase with a density between 3×10^6 and 3×10^7 cells/ml, and are centrifuged. Culture medium is removed after centrifugation, resulting in more concentrated algae cells. Cells are then re-suspended in fresh medium and left overnight. Cells are centrifuged again the next day in order to remove the medium, and are then re-suspended in fresh or salt water without any nutrient. The cell density of the suspension is determined prior to storage under the various treatments. Cells in 40 ml flask cultures are grown to mid-log phase with a density of between 3×10^6 and 3×10^7 cells/ml, and are centrifuged. Culture medium is removed after centrifugation, resulting in more concentrated algae cells. Cells are then re-suspended in ideal glass solution consisting of fresh culture medium and trehalose at a concentration of 0.1M, 0.3M, and 0.5M (dihydrate trehalose 100 from Hayashibara Co. Ltd, Okayama, Japan), respectively, and left overnight with mild agitation. Cells are centrifuged again to remove the ideal glass solution the next day, and are re-suspended in fresh or salt water without any nutrient. The cell density of the resulting suspension is determined prior to storage under the various treatments. (Some cells were also treated with a 0.5M sorbitol solution). In one specific embodiment, algae cells can be stored under air-dry conditions using autoclaved sterilized filter paper disks (15 mm Whatman Grade 1, Fisher Scientific 09-805-1B). Specifically, after one piece of paper disk is placed into each well of BD Falcon 12-well tissue culture plates, 0.1 ml algae cell suspension is placed onto each disk. The liquid cell suspension is allowed to air dry in a laminar flow hood for 1 hour. After 1 hour, the plates are closed and placed under low light at ambient temperature. Algae stored under the above preservation conditions for 5 months can be subsequently rejuvenated by removing the paper disks from the 12-well plates and placing cells in 5 ml of fresh medium under light. Cell viability is determined by comparing the cell growth in control set with the experimental set. Specifically, cell counts are performed on all samples. The averaged density value (in cells per ml) for all the cultures after treatment is defined as “rejuvenation cell count.” In some samples, the percent recovery of cells immediately after storage is also determined. The formulae are illustrated as follows: Growth=(rejuvenation cell count)/(initial cell count) Cell recovery after storage=(cell density after storage)/(initial cell density), with controls set at 100% cell recovery. Viability after storage and rejuvenation in nutrient medium=(Growth of treatment)/(Growth of control)×100%, with controls set at 100% viability

Chlorella (KAS603) = experiment: as above; type: cell-based; conditions: for % Viability: 0M control = 100%; for Growth: final/initial density
Description: as §1

Dunaliella cells = experiment: Trehalose loading of Dunaliella, shelf storage and recovery in fresh medium; type: cell-based, D. salina; conditions: 0.5 and 1.0 M trehalose
Description: First, cells in log phase are spun down at 1500×g for 10 minutes. Supernatant is decanted and the pellet is gently re-suspended in a minimal volume of medium and placed in a 1 L flask. The cell count of the slurry is 1.776×10^8 cells/ml. Next, four 50 ml tubes are prepared with aliquots of 21 ml of slurry in each tube prior to re-suspension, in a defined extracellular concentration of α-trehalose (α-D-glycosyl-α-D-glycosylpyranoside, Hayashibara Co., in Melis medium at a salinity of 1.0 M NaCl (referred to as 1M Melis). The cells are then spun down again and the pellets are re-suspended in 200 ml of treatment medium, that is, 1M Melis with or without added trehalose. The four preservation treatments in 1M Melis are performed in the following four sets in triplicate: no trehalose ([…]), 0.5M trehalose, 1.0M trehalose, and 2.0M trehalose. The cell density after re-suspension is at 1.865×10^7 cells/ml. During the re-suspension of cell pellets in 1M Melis, 2.0M trehalose, the pellet is not completely broken apart, yielding visible clumps in the suspension. After the re-suspension, cells are transferred to 250 ml flasks and left on the shelf at a temperature of 23-27° C. and light Intensity <5 μE/m^2-sec, without any agitation or aeration. […]

[1] = 0.1M trehalose in F/2, 20 weeks storage in water (no nutrients)
[2] = 0.1M trehalose in F/2, 20 weeks storage
[3] = 0.3M trehalose in F/2, 20 weeks storage in water (no nutrients)
[4] = 0.3M trehalose in F/2, 20 weeks storage
[5] = 0.5M trehalose in F/2, 20 weeks storage in water (no nutrients)
[6] = 0.5M trehalose in F/2, 20 weeks storage

OC[C@H]1O[C@H](O[C@H]2O[C@H](CO)[C@@H](O)[C@H](O)[C@H]2O)[C@H](O)[C@@H](O)[C@@H]1O [trehalose, α-D-glycosyl-α-D-glycosylpyranoside]
Cell colors on paper/in medium (Tetraselmis (KAS633); [1]): Green/green | Final density after storage and 3 weeks rejuvenation (Tetraselmis (KAS633); [1]): 8.60 × 10^6 cells/ml | % Viability (Tetraselmis (KAS633); [2]): (80%) | Growth (Tetraselmis (KAS633); [2]): 5.51 | Final density after storage and 3 weeks rejuvenation (Tetraselmis (KAS633); [3]): 2.15 × 10^6 cells/ml | % Viability (Tetraselmis (KAS633); [4]): (19%) | Growth (Tetraselmis (KAS633); [4]): 1.32 | Cell colors on paper/in medium (Tetraselmis (KAS633); [5]): White/clear | Final density after storage and 3 weeks rejuvenation (Tetraselmis (KAS633); [5]): 1.915 × 10^6 cells/ml | % Viability (Tetraselmis (KAS633); [6]): (16%) | Growth (Tetraselmis (KAS633); [6]): 1.10 | Cell colors on paper/in medium (Chlorella (KAS603); [1]): Green/green | Final density after storage and 3 weeks rejuvenation (Chlorella (KAS603); [1]): 2.278 × 10^7 cells/ml | % Viability (Chlorella (KAS603); [2]): (133%) | Growth (Chlorella (KAS603); [2]): 1.433 | Final density after storage and 3 weeks rejuvenation (Chlorella (KAS603); [3]): 4.440 × 10^7 cells/ml | % Viability (Chlorella (KAS603); [4]): (144%) | Growth (Chlorella (KAS603); [4]): 1.55 | Final density after storage and 3 weeks rejuvenation (Chlorella (KAS603); [5]): 3.140 × 10^7 cells/ml | % Viability (Chlorella (KAS603); [6]): (133)% | Growth (Chlorella (KAS603); [6]): 1.43 | Functional recovery (Dunaliella cells; 4.5-week period, FIG. 3): exhibit functional recovery | Functional recovery (Dunaliella cells; 8-week period, no cell growth observed): negligible functional recovery
